{"source": "patent US20230363424A1", "about": "“COMPOUNDS AND METHODS FOR ENHANCING SWEETNESS OF SWEETENERS” (Conagen Inc., priority 2021, published 2023)", "format_in_all_cases": "in vivo, human", "key": {"taste panelists [1]": {"system": "taste panelists", "test": "Inherent sweetness, two-alternative forced choice sip and spit (2AFC) vs 1.5% sucrose control", "details": "control 1.5% sucrose, n=30", "protocol": "The inherent sweetness of Compounds (1), (2), and (3) as perceived by human subjects was evaluated using a two-alternative forced choice “sip and spit” method (2AFC). The 2AFC test used for compound evaluation was a double-blinded and randomized test where taste panelists (n=30) evaluated a pair of sweetener solutions at a time—one sample is a 1.5% sucrose control, while the other is an aqueous solution containing a test compound at the indicated concentration. Panelists were instructed not to eat or drink (except water) for at least 1 hour before the test. During the test panelists were instructed to sip each sample, swirl it around their mouth and then expectorate. […] Panelists cleansed their palates by rinsing with water, eating a cracker and waiting for an interval of about 5 minutes. All samples were tested at ambient temperatures."}, "taste panelists [2]": {"system": "taste panelists", "test": "Sweetness enhancing effect with sucrose, 2AFC sip and spit test", "details": "control 5% sucrose solution, n=30", "protocol": "(§1) The sweetness enhancing effect of Compounds (1), (2), and (3) when used with certain sweeteners (specifically, sucrose or rebaudioside M) was evaluated using a two-alternative forced choice “sip and spit” method (2AFC). The 2AFC test used for compound evaluation was a double-blinded and randomized test where taste panelists (n=30) evaluated a pair of sweetener solutions at a time—one sample contains aqueous sweetener solution plus compound (test sample), while the other contains the aqueous sweetener solution without compound (control). Each test sample was compared against a positive control. For example, if the test sample contained 5% sucrose solution with Compound (1), the positive control contained a 5% sucrose solution (i.e., without Compound (1)). Panelists were instructed not to eat or drink (except water) for at least 1 hour before the test. During the test panelists were instructed to sip each sample, swirl it around their mouth and then expectorate. After tasting each sample in the pair, panelists were instructed to record the sample that is “sweeter” in taste. Panelists cleansed their palates by rinsing with water, eating a cracker and waiting for an interval of about 5 minutes. All samples were tested at ambient temperatures."}, "taste panelists [3]": {"system": "taste panelists", "test": "Sweetness enhancing effect with rebaudioside M, 2AFC sip and spit test", "details": "control 100 ppm Reb M solution, n=30", "protocol": "as §1"}, "[4]": {"details": "compound 20 ppm in aqueous solution"}, "[5]": {"details": "compound 50 ppm in aqueous solution"}, "[6]": {"details": "compound 80 ppm in aqueous solution"}, "[7]": {"details": "compound 20 ppm in 100 ppm Reb M solution"}}}
{"smiles": "Cc1cc(O)c2c(c1)OC(=O)CC2c1ccc(O)c(O)c1", "note": "(stereo not drawn) [Compound (1), 4-(3,4-dihydroxyphenyl)-5-hydroxy-7-methylchroman-2-one]", "values": [{"measurement": "panelists who chose Sample as comparable in sweetness to Control", "setting": "taste panelists [1]; [4]", "value": "1 of 30 panelists chose Sample as"}, {"measurement": "panelists who chose Sample as comparable in sweetness to Control", "setting": "taste panelists [1]; [5]", "value": "2 of 30 panelists chose Sample as"}, {"measurement": "panelists who chose Sample as comparable in sweetness to Control", "setting": "taste panelists [1]; [6]", "value": "2 of 30 panelists chose Sample as"}, {"measurement": "panelists who chose Test Sample as sweeter than Control", "setting": "taste panelists [2]; compound 60 ppm in 5% sucrose solution", "value": "21 of 30 panelists"}, {"measurement": "panelists who chose Sample as sweeter than Control", "setting": "taste panelists [3]; [7]", "value": "29 of 30 panelists"}]}
{"smiles": "COc1cc(C2CC(=O)Oc3ccc(O)c(C)c32)ccc1O", "note": "(stereo not drawn) [Compound (2), 6-hydroxy-4-(4-hydroxy-3-methoxyphenyl)-5-methylchroman-2-one]", "values": [{"measurement": "panelists who chose Sample as comparable in sweetness to Control", "setting": "taste panelists [1]; [4]", "value": "1 of 30 panelists chose Sample as"}, {"measurement": "panelists who chose Sample as comparable in sweetness to Control", "setting": "taste panelists [1]; [5]", "value": "1 of 30 panelists chose Sample as"}, {"measurement": "panelists who chose Sample as comparable in sweetness to Control", "setting": "taste panelists [1]; [6]", "value": "1 of 30 panelists chose Sample as"}, {"measurement": "panelists who chose Sample as sweeter than Control", "setting": "taste panelists [2]; compound 40 ppm in 5% sucrose solution", "value": "29 of 30 panelists"}, {"measurement": "panelists who chose Sample as sweeter than Control", "setting": "taste panelists [3]; [7]", "value": "30 of 30 panelists"}]}
{"smiles": "COc1cc(C2CC(=O)Oc3cccc(O)c32)ccc1O", "note": "(stereo not drawn) [Compound (3), 5-hydroxy-4-(4-hydroxy-3-methoxyphenyl)chroman-2-one]", "values": [{"measurement": "panelists who chose Sample as comparable in sweetness to Control", "setting": "taste panelists [1]; [4]", "value": "2 of 30 panelists chose Sample as"}, {"measurement": "panelists who chose Sample as comparable in sweetness to Control", "setting": "taste panelists [1]; [5]", "value": "2 of 30 panelists chose Sample as"}, {"measurement": "panelists who chose Sample as comparable in sweetness to Control", "setting": "taste panelists [1]; [6]", "value": "1 of 30 panelists chose Sample as"}, {"measurement": "panelists who chose Sample as sweeter than Control", "setting": "taste panelists [2]; compound 20 ppm in 5% sucrose solution", "value": "28 of 30 panelists"}, {"measurement": "panelists who chose Sample as sweeter than Control", "setting": "taste panelists [3]; compound 40 ppm in 100 ppm Reb M solution", "value": "20 of 30 panelists"}]}
